Assay results from ChEMBL document CHEMBL1955794, “β-Carboline alkaloids from the leaves of Trigonostemon lii Y.T. Chang” (Bioorg Med Chem Lett, 2012).

These molecules were tested on SW480 (assay: Cytotoxicity against human SW480 cells after 48 hrs by MTT assay). Conditions: SW480, 48 h.
Type: functional, cell-based

Q: With `COc1ccc2c(c1)[nH]c1c(C(C)=O)nccc12` [ARENARINE C] as the molecule, how does the IC50 read?
A: Its IC50 is > 40 µM.

Q: How did the IC50 turn out when `COc1ccc2c(-c3nccc4c3[nH]c3ccccc34)ccnc2c1` [TRIGONOSTEMONINE D] was run?
A: Its IC50 is > 40 µM.

Q: `COc1ccc2c(c1)[nH]c1c(-c3ccnc4ccccc34)nccc12` [TRIGONOSTEMONINE C] was tested. Which IC50 did it give?
A: The IC50 was > 40 µM.

Q: With `COc1ccc2c(c1)[nH]c1c(C(=O)c3c[nH]c4ccccc34)nccc12` [TRIGONOSTEMINE A] as the molecule, how does the IC50 read?
A: Its IC50 is 4.86 µM.

Q: `COC(=O)c1nccc2c1[nH]c1cc(OC)ccc12` [HARMIC ACID METHYL ESTER] was tested. Which IC50 did it give?
A: Its IC50 is > 40 µM.

Q: Which IC50 does the source give for `COc1ccc2c(c1)[nH]c1c(-c3ccnc4ccccc34)nc(O)cc12` [TRIGONOSTEMINE E] here?
A: Its IC50 is 39.1 µM.

Q: `COc1ccc2c(=O)n3c(nc2c1)-c1[nH]c2ccccc2c1CC3` was tested. Which IC50 did it give?
A: The IC50 was > 40 µM.

Q: `COc1ccc2c3c([nH]c2c1)-c1nc2ccccc2c(=O)n1CC3` was tested. Which IC50 did it give?
A: The IC50 was > 40 µM.

Q: `COc1ccc2c(C3=NCCc4c3[nH]c3ccccc43)ccnc2c1` [TRIGONOSTEMONINE E] was tested. Which IC50 did it give?
A: The IC50 was > 40 µM.

Q: Which IC50 does the source give for `O=C1NCCc2c1[nH]c1ccccc21` here?
A: Its IC50 is > 40 µM.

Q: With `COc1ccc2c(C(=O)c3nccc4c3[nH]c3ccccc34)c(O)[nH]c2c1` [TRIGONOSTEMINE D] as the molecule, how does the IC50 read?
A: Its IC50 is > 40 µM.

Q: With `COc1ccc2c(c1)[nH]c1c(C(=O)c3c(O)[nH]c4ccccc34)nccc12` [TRIGONOSTEMINE C] as the molecule, how does the IC50 read?
A: Its IC50 is 17.2 µM.

Q: Which IC50 does the source give for `COc1ccc2c(C(=O)c3nccc4c3[nH]c3cc(OC)ccc34)c[nH]c2c1` [TRIGONOSTEMINE B] here?
A: The IC50 was 3.55 µM.

Q: Which IC50 does the source give for `COc1ccc2c(-c3nc(O)cc4c3[nH]c3ccccc34)ccnc2c1` [TRIGONOSTEMINE F] here?
A: Its IC50 is > 40 µM.

Each molecule was assayed on MCF7 (assay: Cytotoxicity against human MCF7 cells after 48 hrs by MTT assay). Conditions: MCF7, 48 h.
Type: functional, cell-based

Q: `COc1ccc2c(c1)[nH]c1c(C(C)=O)nccc12` [ARENARINE C] was tested. Which IC50 did it give?
A: The IC50 was > 40 µM.

Q: `COc1ccc2c(-c3nccc4c3[nH]c3ccccc34)ccnc2c1` [TRIGONOSTEMONINE D] was tested. Which IC50 did it give?
A: The IC50 was > 40 µM.

Q: For `COc1ccc2c(c1)[nH]c1c(-c3ccnc4ccccc34)nccc12` [TRIGONOSTEMONINE C], which IC50 is on record?
A: The IC50 was > 40 µM.

Q: How did the IC50 turn out when `COc1ccc2c(c1)[nH]c1c(C(=O)c3c[nH]c4ccccc34)nccc12` [TRIGONOSTEMINE A] was run?
A: The IC50 was 5.3 µM.

Q: For `COC(=O)c1nccc2c1[nH]c1cc(OC)ccc12` [HARMIC ACID METHYL ESTER], which IC50 is on record?
A: The IC50 was > 40 µM.

Q: Which IC50 does the source give for `COc1ccc2c(c1)[nH]c1c(-c3ccnc4ccccc34)nc(O)cc12` [TRIGONOSTEMINE E] here?
A: The IC50 was 14.4 µM.

Q: How did the IC50 turn out when `COc1ccc2c(=O)n3c(nc2c1)-c1[nH]c2ccccc2c1CC3` was run?
A: Its IC50 is > 40 µM.

Q: For `COc1ccc2c3c([nH]c2c1)-c1nc2ccccc2c(=O)n1CC3`, which IC50 is on record?
A: Its IC50 is > 40 µM.

Q: `COc1ccc2c(C3=NCCc4c3[nH]c3ccccc43)ccnc2c1` [TRIGONOSTEMONINE E] was tested. Which IC50 did it give?
A: Its IC50 is > 40 µM.

Q: Which IC50 does the source give for `O=C1NCCc2c1[nH]c1ccccc21` here?
A: The IC50 was > 40 µM.

Q: Which IC50 does the source give for `COc1ccc2c(C(=O)c3nccc4c3[nH]c3ccccc34)c(O)[nH]c2c1` [TRIGONOSTEMINE D] here?
A: Its IC50 is 13.8 µM.

Q: Which IC50 does the source give for `COc1ccc2c(c1)[nH]c1c(C(=O)c3c(O)[nH]c4ccccc34)nccc12` [TRIGONOSTEMINE C] here?
A: Its IC50 is 16.1 µM.

Q: Which IC50 does the source give for `COc1ccc2c(C(=O)c3nccc4c3[nH]c3cc(OC)ccc34)c[nH]c2c1` [TRIGONOSTEMINE B] here?
A: The IC50 was 2.98 µM.

Q: With `COc1ccc2c(-c3nc(O)cc4c3[nH]c3ccccc34)ccnc2c1` [TRIGONOSTEMINE F] as the molecule, how does the IC50 read?
A: The IC50 was > 40 µM.

Each molecule was assayed on A549 (assay: Cytotoxicity against human A549 cells after 48 hrs by MTT assay). Conditions: A549, 48 h.
Type: functional, cell-based

Q: How did the IC50 turn out when `COc1ccc2c(c1)[nH]c1c(C(C)=O)nccc12` [ARENARINE C] was run?
A: Its IC50 is > 40 µM.

Q: How did the IC50 turn out when `COc1ccc2c(-c3nccc4c3[nH]c3ccccc34)ccnc2c1` [TRIGONOSTEMONINE D] was run?
A: The IC50 was > 40 µM.

Q: For `COc1ccc2c(c1)[nH]c1c(-c3ccnc4ccccc34)nccc12` [TRIGONOSTEMONINE C], which IC50 is on record?
A: Its IC50 is 23.1 µM.

Q: Which IC50 does the source give for `COc1ccc2c(c1)[nH]c1c(C(=O)c3c[nH]c4ccccc34)nccc12` [TRIGONOSTEMINE A] here?
A: The IC50 was 23.9 µM.

Q: For `COC(=O)c1nccc2c1[nH]c1cc(OC)ccc12` [HARMIC ACID METHYL ESTER], which IC50 is on record?
A: Its IC50 is > 40 µM.

Q: `COc1ccc2c(c1)[nH]c1c(-c3ccnc4ccccc34)nc(O)cc12` [TRIGONOSTEMINE E] was tested. Which IC50 did it give?
A: Its IC50 is 24.3 µM.

Q: `COc1ccc2c(=O)n3c(nc2c1)-c1[nH]c2ccccc2c1CC3` was tested. Which IC50 did it give?
A: The IC50 was > 40 µM.

Q: For `COc1ccc2c3c([nH]c2c1)-c1nc2ccccc2c(=O)n1CC3`, which IC50 is on record?
A: Its IC50 is > 40 µM.

Q: How did the IC50 turn out when `COc1ccc2c(C3=NCCc4c3[nH]c3ccccc43)ccnc2c1` [TRIGONOSTEMONINE E] was run?
A: The IC50 was > 40 µM.

Q: With `O=C1NCCc2c1[nH]c1ccccc21` as the molecule, how does the IC50 read?
A: The IC50 was > 40 µM.

Q: For `COc1ccc2c(C(=O)c3nccc4c3[nH]c3ccccc34)c(O)[nH]c2c1` [TRIGONOSTEMINE D], which IC50 is on record?
A: The IC50 was > 40 µM.

Q: `COc1ccc2c(c1)[nH]c1c(C(=O)c3c(O)[nH]c4ccccc34)nccc12` [TRIGONOSTEMINE C] was tested. Which IC50 did it give?
A: The IC50 was 18.5 µM.

Q: Which IC50 does the source give for `COc1ccc2c(C(=O)c3nccc4c3[nH]c3cc(OC)ccc34)c[nH]c2c1` [TRIGONOSTEMINE B] here?
A: Its IC50 is 8.67 µM.

Q: For `COc1ccc2c(-c3nc(O)cc4c3[nH]c3ccccc34)ccnc2c1` [TRIGONOSTEMINE F], which IC50 is on record?
A: The IC50 was > 40 µM.

Each molecule was assayed on SMMC-7721 (assay: Cytotoxicity against human SMMC7721 cells after 48 hrs by MTT assay). Conditions: SMMC-7721, 48 h.
Type: functional, cell-based

Q: How did the IC50 turn out when `COc1ccc2c(c1)[nH]c1c(C(C)=O)nccc12` [ARENARINE C] was run?
A: Its IC50 is > 40 µM.

Q: With `COc1ccc2c(-c3nccc4c3[nH]c3ccccc34)ccnc2c1` [TRIGONOSTEMONINE D] as the molecule, how does the IC50 read?
A: The IC50 was > 40 µM.

Q: Which IC50 does the source give for `COc1ccc2c(c1)[nH]c1c(-c3ccnc4ccccc34)nccc12` [TRIGONOSTEMONINE C] here?
A: The IC50 was 15.5 µM.

Q: How did the IC50 turn out when `COc1ccc2c(c1)[nH]c1c(C(=O)c3c[nH]c4ccccc34)nccc12` [TRIGONOSTEMINE A] was run?
A: The IC50 was 22.4 µM.

Q: Which IC50 does the source give for `COC(=O)c1nccc2c1[nH]c1cc(OC)ccc12` [HARMIC ACID METHYL ESTER] here?
A: The IC50 was > 40 µM.

Q: How did the IC50 turn out when `COc1ccc2c(c1)[nH]c1c(-c3ccnc4ccccc34)nc(O)cc12` [TRIGONOSTEMINE E] was run?
A: The IC50 was 23.5 µM.

Q: How did the IC50 turn out when `COc1ccc2c(=O)n3c(nc2c1)-c1[nH]c2ccccc2c1CC3` was run?
A: Its IC50 is > 40 µM.

Q: `COc1ccc2c3c([nH]c2c1)-c1nc2ccccc2c(=O)n1CC3` was tested. Which IC50 did it give?
A: The IC50 was > 40 µM.

Q: Which IC50 does the source give for `COc1ccc2c(C3=NCCc4c3[nH]c3ccccc43)ccnc2c1` [TRIGONOSTEMONINE E] here?
A: The IC50 was > 40 µM.

Q: For `O=C1NCCc2c1[nH]c1ccccc21`, which IC50 is on record?
A: Its IC50 is > 40 µM.

Q: How did the IC50 turn out when `COc1ccc2c(C(=O)c3nccc4c3[nH]c3ccccc34)c(O)[nH]c2c1` [TRIGONOSTEMINE D] was run?
A: The IC50 was > 40 µM.

Q: `COc1ccc2c(c1)[nH]c1c(C(=O)c3c(O)[nH]c4ccccc34)nccc12` [TRIGONOSTEMINE C] was tested. Which IC50 did it give?
A: The IC50 was 16 µM.

Q: How did the IC50 turn out when `COc1ccc2c(C(=O)c3nccc4c3[nH]c3cc(OC)ccc34)c[nH]c2c1` [TRIGONOSTEMINE B] was run?
A: The IC50 was 4.78 µM.

Q: `COc1ccc2c(-c3nc(O)cc4c3[nH]c3ccccc34)ccnc2c1` [TRIGONOSTEMINE F] was tested. Which IC50 did it give?
A: Its IC50 is > 40 µM.

Each molecule was assayed on HL-60 (assay: Cytotoxicity against human HL60 cells after 48 hrs by MTT assay). Conditions: HL-60, 48 h.
Type: functional, cell-based

Q: Which IC50 does the source give for `COc1ccc2c(c1)[nH]c1c(C(C)=O)nccc12` [ARENARINE C] here?
A: The IC50 was > 40 µM.

Q: How did the IC50 turn out when `COc1ccc2c(-c3nccc4c3[nH]c3ccccc34)ccnc2c1` [TRIGONOSTEMONINE D] was run?
A: The IC50 was > 40 µM.

Q: For `COc1ccc2c(c1)[nH]c1c(-c3ccnc4ccccc34)nccc12` [TRIGONOSTEMONINE C], which IC50 is on record?
A: Its IC50 is 13.4 µM.

Q: How did the IC50 turn out when `COc1ccc2c(c1)[nH]c1c(C(=O)c3c[nH]c4ccccc34)nccc12` [TRIGONOSTEMINE A] was run?
A: Its IC50 is 13.4 µM.

Q: For `COC(=O)c1nccc2c1[nH]c1cc(OC)ccc12` [HARMIC ACID METHYL ESTER], which IC50 is on record?
A: Its IC50 is > 40 µM.

Q: How did the IC50 turn out when `COc1ccc2c(c1)[nH]c1c(-c3ccnc4ccccc34)nc(O)cc12` [TRIGONOSTEMINE E] was run?
A: Its IC50 is 18.8 µM.

Q: How did the IC50 turn out when `COc1ccc2c(=O)n3c(nc2c1)-c1[nH]c2ccccc2c1CC3` was run?
A: The IC50 was > 40 µM.

Q: For `COc1ccc2c3c([nH]c2c1)-c1nc2ccccc2c(=O)n1CC3`, which IC50 is on record?
A: Its IC50 is > 40 µM.

Q: Which IC50 does the source give for `COc1ccc2c(C3=NCCc4c3[nH]c3ccccc43)ccnc2c1` [TRIGONOSTEMONINE E] here?
A: Its IC50 is > 40 µM.

Q: With `O=C1NCCc2c1[nH]c1ccccc21` as the molecule, how does the IC50 read?
A: Its IC50 is > 40 µM.

Q: Which IC50 does the source give for `COc1ccc2c(C(=O)c3nccc4c3[nH]c3ccccc34)c(O)[nH]c2c1` [TRIGONOSTEMINE D] here?
A: Its IC50 is > 40 µM.

Q: With `COc1ccc2c(c1)[nH]c1c(C(=O)c3c(O)[nH]c4ccccc34)nccc12` [TRIGONOSTEMINE C] as the molecule, how does the IC50 read?
A: Its IC50 is > 40 µM.

Q: For `COc1ccc2c(C(=O)c3nccc4c3[nH]c3cc(OC)ccc34)c[nH]c2c1` [TRIGONOSTEMINE B], which IC50 is on record?
A: The IC50 was > 40 µM.

Q: For `COc1ccc2c(-c3nc(O)cc4c3[nH]c3ccccc34)ccnc2c1` [TRIGONOSTEMINE F], which IC50 is on record?
A: The IC50 was > 40 µM.
